This is an account of results in ChEMBL document CHEMBL4118242, “Computer-aided discovery and biological characterization of human lactate dehydrogenase 5 inhibitors with anti-osteosarcoma activity” (Bioorg Med Chem Lett, 2018).

SMILES strings stand for the structures. Activity calls are given as the source filed them. The rule behind the calls is not given here.

The target in experiment [1] is T1, L-lactate dehydrogenase A chain (Homo sapiens, UniProt P00338). As to the kind of experiment: Inhibition of human LDH5 at 10 uM using pyruvate as substrate after 10 mins.
In experiment [2] the target is T1, L-lactate dehydrogenase A chain. As to the kind of experiment: Inhibition of LDH5 in human MG63 cells assessed as increase in oxygen consumption rate at 1 uM after 4 hrs. It is filed as cell-based.
The subject of experiment [3] is MG-63. As to the kind of experiment: Antiproliferative activity against human MG63 cells after 72 hrs by MTT assay. The format is functional, cell-based. The conditions noted are these: MG-63, 72 h. (In general: Formazan colour is commonly taken as a measure of viable cells.)
For experiment [4], the system named is MG-63. Put plainly: Antiproliferative activity against human MG63 cells at 4 uM after 72 hrs by MTT assay. The format is functional, cell-based.
For experiment [5], the system named is MG-63. Put plainly: Antiproliferative activity against human MG63 cells at 10 uM after 72 hrs by MTT assay. It is filed as functional, cell-based.
Experiment [6] addresses T1, L-lactate dehydrogenase A chain. Put plainly: Inhibition of human LDH5 at 1 uM using pyruvate as substrate after 10 mins.
For experiment [7] the target is unchanged. Put plainly: Inhibition of human LDH5 using pyruvate as substrate after 10 mins.
For experiment [8] the target is unchanged. Put plainly: Inhibition of LDH5 in human MG63 cells assessed as induction of ROS generation at 5 to 10 uM after 4 hrs by DCFH-DA staining-based fluorescence assay. The format is cell-based.
Experiment [9] has the same target. As to the kind of experiment: Inhibition of LDH5 in human MG63 cells assessed as increase in oxygen consumption rate at 1 to 10 uM after 4 hrs. The format is cell-based.
For experiment [10] the target is unchanged. Put plainly: Inhibition of LDH5 in human MG63 cells assessed as decrease in extracellular acidification rate after 4 hrs. The format is cell-based.
The target is the same in experiment [11]. As to the kind of experiment: Inhibition of LDH5 in human MG63 cells assessed as decrease in lactate formation after 4 hrs. It is filed as cell-based.
Experiment [12] has as its system MG-63. As to the kind of experiment: Antiproliferative activity in human MG63 cells at 4 uM after 24 to 72 hrs by IncuCyte zoom live cell imaging method. The format is functional, cell-based.

Consider `COc1ccc([C@@H](NCc2c[nH]nc2-c2ccc(F)cc2)c2ccncc2)cc1`, for which the inhibition result in [1] is “inactive”.

Consider `O=C1N[C@](c2ccc(N3CCOCC3)cc2)(c2ccsc2)CC(O)=C1Sc1ccccc1Cl`, for which the result in experiment [2] was Active. In addition, in the experiment on MG-63 [3], the IC50 (in general, the concentration at which inhibition is half-maximal) is 0.66 µM.

As for `O=C(Cn1ccnc1-c1ccccc1)NC[C@@H]1COc2ccccc2O1`, the outcome in the experiment with MG-63 [4] was inactive. Also, the outcome with MG-63 [5] was Active.

As to `Cc1nc(C)c(CC(=O)N2CCN(CCOc3ccccc3)CC2)c(=O)[nH]1`, the inhibition entry in experiment [1] is “inactive”.

Consider `Cc1cccc(OC[C@H](O)CN2CCN(CCN3C(=O)c4cccc5cccc(c45)C3=O)CC2)c1C`, for which, in [6], the inhibition result is “Active”. Further, the outcome in the experiment with MG-63 [4] was inactive. Further, in [7], a half-maximal response (EC50) required 0.67 µM. In addition, the outcome in the experiment on MG-63 [5] was Active.

With `COc1cccc(CN2CCCCC23CC3)c1OC[C@@H](O)CN1CCOCC1`, the result (in [8]; in experiment [9]; with MG-63 [12]; in the experiment with MG-63 [5]) was Active. Further, the inhibition entry in experiment [10] and in experiment [11] was “Dose-dependent effect” each time. For the same compound, in [6], the inhibition result was “Active”. Further, the IC50 in the experiment with MG-63 [3] turned out to be 3.18 µM. The EC50 (commonly the concentration giving half of the maximal effect) in experiment [7] came out at 0.39 µM.
